Converted amounts (≈) assume the structure as drawn.
Assays:
Format in all cases: functional
Staphylococcus aureus [1] = assay: Antimicrobial activity against Staphylococcus aureus MTCC 96 assessed as growth inhibition after 24 hr by agar streak dilution method; conditions: MTCC 96, 24 h
Aspergillus niger [2] = assay: Antimicrobial activity against Aspergillus niger MTCC 282 assessed as diameter of growth inhibition zone after 48 hr
Aspergillus niger [3] = assay: Antimicrobial activity against Aspergillus niger MTCC 282 assessed as growth inhibition after 48 hr by agar streak dilution method; conditions: MTCC 282, 48 h
Shigella flexneri [4] = assay: Antimicrobial activity against Shigella flexneri MTCC1457 assessed as growth inhibition after 24 hr by agar streak dilution method; conditions: MTCC1457, 24 h
Klebsiella pneumoniae [5] = assay: Antimicrobial activity against Klebsiella pneumoniae MTCC 109 assessed as diameter of growth inhibition zone after 24 hr
Klebsiella pneumoniae [6] = assay: Antimicrobial activity against Klebsiella pneumoniae MTCC 109 assessed as growth inhibition after 24 hr by agar streak dilution method; conditions: MTCC 109, 24 h
Proteus vulgaris [7] = assay: Antimicrobial activity against Proteus vulgaris MTCC 1771 assessed as diameter of growth inhibition zone after 24 hr
Candida albicans [8] = assay: Antimicrobial activity against Candida albicans MTCC 183 assessed as diameter of growth inhibition zone after 48 hr
Staphylococcus aureus [9] = assay: Antimicrobial activity against Staphylococcus aureus MTCC 96 assessed as diameter of growth inhibition zone after 24 hr
Escherichia coli [10] = assay: Antimicrobial activity against Escherichia coli MTCC 739 assessed as diameter of growth inhibition zone after 24 hr
Shigella flexneri [11] = assay: Antimicrobial activity against Shigella flexneri MTCC1457 assessed as diameter of growth inhibition zone after 24 hr
[12] = tested on: Mycobacterium tuberculosis; assay: Antituberculosis activity against Mycobacterium tuberculosis H37Rv assessed as growth inhibition after 12 to 28 days by L-J MIC method; conditions: for MIC: Mycobacterium tuberculosis, H37Rv
Pseudomonas aeruginosa [13] = assay: Antimicrobial activity against Pseudomonas aeruginosa MTCC 741 assessed as growth inhibition after 24 hr by agar streak dilution method; conditions: MTCC 741, 24 h
Proteus vulgaris [14] = assay: Antimicrobial activity against Proteus vulgaris MTCC 1771 assessed as growth inhibition after 24 hr by agar streak dilution method; conditions: MTCC 1771, 24 h
Bacillus cereus [15] = assay: Antimicrobial activity against Bacillus cereus MTCC 430 assessed as growth inhibition after 24 hr by agar streak dilution method; conditions: MTCC 430, 24 h
Salmonella typhi [16] = assay: Antimicrobial activity against Salmonella enterica subsp. enterica serovar Typhi MTCC 733 assessed as growth inhibition after 24 hr by agar streak dilution method; conditions: MTCC 733, 24 h
Bacillus cereus [17] = assay: Antimicrobial activity against Bacillus cereus MTCC 430 assessed as diameter of growth inhibition zone after 24 hr
Aspergillus clavatus [18] = assay: Antimicrobial activity against Aspergillus clavatus MTCC 1323 assessed as growth inhibition after 48 hr by agar streak dilution method; conditions: MTCC 1323, 48 h
Pseudomonas aeruginosa [19] = assay: Antimicrobial activity against Pseudomonas aeruginosa MTCC 741 assessed as diameter of growth inhibition zone after 24 hr
Escherichia coli [20] = assay: Antimicrobial activity against Escherichia coli MTCC 739 assessed as growth inhibition after 24 hr by agar streak dilution method; conditions: MTCC 739, 24 h
Aspergillus fumigatus [21] = assay: Antimicrobial activity against Aspergillus fumigatus MTCC 343 assessed as diameter of growth inhibition zone after 48 hr
Aspergillus fumigatus [22] = assay: Antimicrobial activity against Aspergillus fumigatus MTCC 343 assessed as growth inhibition after 48 hr by agar streak dilution method; conditions: MTCC 343, 48 h
Aspergillus clavatus [23] = assay: Antimicrobial activity against Aspergillus clavatus MTCC 1323 assessed as diameter of growth inhibition zone after 48 hr
Candida albicans [24] = assay: Antimicrobial activity against Candida albicans MTCC 183 assessed as growth inhibition after 48 hr by agar streak dilution method; conditions: MTCC 183, 48 h
Salmonella typhi [25] = assay: Antimicrobial activity against Salmonella enterica subsp. enterica serovar Typhi MTCC 733 assessed as diameter of growth inhibition zone after 24 hr

Structure (SMILES)	MIC (Staphylococcus aureus [1]) [µg/mL]	diameter of the inhibition zone (DIZ) (Aspergillus niger [2]) [mm]	MIC (Aspergillus niger [3]) [µg/mL]	MIC (Shigella flexneri [4]) [µg/mL]	diameter of the inhibition zone (DIZ) (Klebsiella pneumoniae [5]) [mm]	MIC (Klebsiella pneumoniae [6]) [µg/mL]	diameter of the inhibition zone (DIZ) (Proteus vulgaris [7]) [mm]	diameter of the inhibition zone (DIZ) (Candida albicans [8]) [mm]	diameter of the inhibition zone (DIZ) (Staphylococcus aureus [9]) [mm]	diameter of the inhibition zone (DIZ) (Escherichia coli [10]) [mm]	diameter of the inhibition zone (DIZ) (Shigella flexneri [11]) [mm]	growth inhibition (GI) [12] [%]	MIC [12] [µg/mL]	MIC (Pseudomonas aeruginosa [13]) [µg/mL]	MIC (Proteus vulgaris [14]) [µg/mL]	MIC (Bacillus cereus [15]) [µg/mL]	MIC (Salmonella typhi [16]) [µg/mL]	diameter of the inhibition zone (DIZ) (Bacillus cereus [17]) [mm]	MIC (Aspergillus clavatus [18]) [µg/mL]	diameter of the inhibition zone (DIZ) (Pseudomonas aeruginosa [19]) [mm]	other results
Cc1ccc(-c2cc(-c3ccc(Nc4cc(=O)oc5ccccc45)cc3)nc(N)c2C#N)cc1	25 (≈ 56.2 µM)	24	12.5 (≈ 28.1 µM)	12.5 (≈ 28.1 µM)	18	50 (≈ 112 µM)	24	28	21	20	25	98	100 (≈ 225 µM)	12.5 (≈ 28.1 µM)	12.5 (≈ 28.1 µM)	25 (≈ 56.2 µM)	25 (≈ 56.2 µM)	23	25 (≈ 56.2 µM)	22	MIC (Escherichia coli [20]): 25 µg/mL (≈ 56.2 µM); diameter of the inhibition zone (DIZ) (Aspergillus fumigatus [21]): 21 mm; MIC (Aspergillus fumigatus [22]): 25 µg/mL (≈ 56.2 µM); diameter of the inhibition zone (DIZ) (Aspergillus clavatus [23]): 20 mm; MIC (Candida albicans [24]): 3.12 µg/mL (≈ 7.02 µM); diameter of the inhibition zone (DIZ) (Salmonella typhi [25]): 21 mm
CC(=O)N1N=C(c2ccc(Nc3cc(=O)oc4ccccc34)cc2)CC1c1ccccc1 (stereo not drawn)	100 (≈ 236 µM)	<10	100 (≈ 236 µM)	100 (≈ 236 µM)	11	100 (≈ 236 µM)	13	12	<10	<10	<10	95	1000 (≈ 2360 µM)	100 (≈ 236 µM)	100 (≈ 236 µM)	100 (≈ 236 µM)	100 (≈ 236 µM)	13	100 (≈ 236 µM)	10	MIC (Escherichia coli [20]): 100 µg/mL (≈ 236 µM); diameter of the inhibition zone (DIZ) (Aspergillus fumigatus [21]): 13 mm; MIC (Aspergillus fumigatus [22]): 100 µg/mL (≈ 236 µM); diameter of the inhibition zone (DIZ) (Aspergillus clavatus [23]): 16 mm; MIC (Candida albicans [24]): 100 µg/mL (≈ 236 µM); diameter of the inhibition zone (DIZ) (Salmonella typhi [25]): 13 mm
COc1ccc(-c2cc(-c3ccc(Nc4cc(=O)oc5ccccc45)cc3)nc(N)c2C#N)cc1	6.25 (≈ 13.6 µM)	25	12.5 (≈ 27.1 µM)	12.5 (≈ 27.1 µM)	22	12.5 (≈ 27.1 µM)	26	25	27	28	24	96	62.5 (≈ 136 µM)	6.25 (≈ 13.6 µM)	6.25 (≈ 13.6 µM)	6.25 (≈ 13.6 µM)	12.5 (≈ 27.1 µM)	27	6.25 (≈ 13.6 µM)	25	MIC (Escherichia coli [20]): 3.12 µg/mL (≈ 6.78 µM); diameter of the inhibition zone (DIZ) (Aspergillus fumigatus [21]): 21 mm; MIC (Aspergillus fumigatus [22]): 12.5 µg/mL (≈ 27.1 µM); diameter of the inhibition zone (DIZ) (Aspergillus clavatus [23]): 25 mm; MIC (Candida albicans [24]): 12.5 µg/mL (≈ 27.1 µM); diameter of the inhibition zone (DIZ) (Salmonella typhi [25]): 22 mm
Nc1nc(-c2ccccc2)cc(-c2ccc(Nc3cc(=O)oc4ccccc34)cc2)n1	100 (≈ 246 µM)	17	50 (≈ 123 µM)	100 (≈ 246 µM)	15	100 (≈ 246 µM)	15	17	13	14	14	95	500 (≈ 1230 µM)	100 (≈ 246 µM)	100 (≈ 246 µM)	100 (≈ 246 µM)	50 (≈ 123 µM)	15	25 (≈ 61.5 µM)	12	MIC (Escherichia coli [20]): 100 µg/mL (≈ 246 µM); diameter of the inhibition zone (DIZ) (Aspergillus fumigatus [21]): 19 mm; MIC (Aspergillus fumigatus [22]): 50 µg/mL (≈ 123 µM); diameter of the inhibition zone (DIZ) (Aspergillus clavatus [23]): 21 mm; MIC (Candida albicans [24]): 50 µg/mL (≈ 123 µM); diameter of the inhibition zone (DIZ) (Salmonella typhi [25]): 17 mm
N#Cc1c(-c2ccccc2Br)cc(-c2ccc(Nc3cc(=O)oc4ccccc34)cc2)nc1N	25 (≈ 49.1 µM)	22	25 (≈ 49.1 µM)	12.5 (≈ 24.5 µM)	23	12.5 (≈ 24.5 µM)	20	24	23	18	22	98	100 (≈ 196 µM)	50 (≈ 98.2 µM)	25 (≈ 49.1 µM)	25 (≈ 49.1 µM)	25 (≈ 49.1 µM)	20	25 (≈ 49.1 µM)	19	MIC (Escherichia coli [20]): 50 µg/mL (≈ 98.2 µM); diameter of the inhibition zone (DIZ) (Aspergillus fumigatus [21]): 22 mm; MIC (Aspergillus fumigatus [22]): 12.5 µg/mL (≈ 24.5 µM); diameter of the inhibition zone (DIZ) (Aspergillus clavatus [23]): 19 mm; MIC (Candida albicans [24]): 25 µg/mL (≈ 49.1 µM); diameter of the inhibition zone (DIZ) (Salmonella typhi [25]): 22 mm
CC(=O)N1N=C(c2ccc(Nc3cc(=O)oc4ccccc34)cc2)CC1c1ccccc1O (stereo not drawn)	100 (≈ 228 µM)	19	50 (≈ 114 µM)	50 (≈ 114 µM)	20	50 (≈ 114 µM)	17	16	17	16	18	98	250 (≈ 569 µM)	100 (≈ 228 µM)	100 (≈ 228 µM)	100 (≈ 228 µM)	100 (≈ 228 µM)	16	50 (≈ 114 µM)	16	MIC (Escherichia coli [20]): 100 µg/mL (≈ 228 µM); diameter of the inhibition zone (DIZ) (Aspergillus fumigatus [21]): 18 mm; MIC (Aspergillus fumigatus [22]): 25 µg/mL (≈ 56.9 µM); diameter of the inhibition zone (DIZ) (Aspergillus clavatus [23]): 20 mm; MIC (Candida albicans [24]): 100 µg/mL (≈ 228 µM); diameter of the inhibition zone (DIZ) (Salmonella typhi [25]): 16 mm
O=C(/C=C/c1ccc(F)cc1)c1ccc(Nc2cc(=O)oc3ccccc23)cc1	50 (≈ 130 µM)	17	50 (≈ 130 µM)	100 (≈ 259 µM)	17	100 (≈ 259 µM)	18	13	18	18	14	97	250 (≈ 649 µM)	100 (≈ 259 µM)	50 (≈ 130 µM)	25 (≈ 64.9 µM)	100 (≈ 259 µM)	19	100 (≈ 259 µM)	16	MIC (Escherichia coli [20]): 50 µg/mL (≈ 130 µM); diameter of the inhibition zone (DIZ) (Aspergillus fumigatus [21]): 19 mm; MIC (Aspergillus fumigatus [22]): 50 µg/mL (≈ 130 µM); diameter of the inhibition zone (DIZ) (Aspergillus clavatus [23]): 15 mm; MIC (Candida albicans [24]): 100 µg/mL (≈ 259 µM); diameter of the inhibition zone (DIZ) (Salmonella typhi [25]): 17 mm
CC(=O)N1N=C(c2ccc(Nc3cc(=O)oc4ccccc34)cc2)CC1c1ccc(Cl)cc1Cl (stereo not drawn)	12.5 (≈ 25.4 µM)	17	100 (≈ 203 µM)	50 (≈ 102 µM)	19	25 (≈ 50.8 µM)	22	15	22	18	17	96	500 (≈ 1020 µM)	25 (≈ 50.8 µM)	12.5 (≈ 25.4 µM)	12.5 (≈ 25.4 µM)	50 (≈ 102 µM)	21	100 (≈ 203 µM)	20	MIC (Escherichia coli [20]): 50 µg/mL (≈ 102 µM); diameter of the inhibition zone (DIZ) (Aspergillus fumigatus [21]): 19 mm; MIC (Aspergillus fumigatus [22]): 50 µg/mL (≈ 102 µM); diameter of the inhibition zone (DIZ) (Aspergillus clavatus [23]): 16 mm; MIC (Candida albicans [24]): 100 µg/mL (≈ 203 µM); diameter of the inhibition zone (DIZ) (Salmonella typhi [25]): 17 mm
